Measurements reported in patent US12558428B2, “Heterobifunctional compounds and their use in treating disease” (Halda Therapeutics OpCo, Inc., priority 2024, dated 2026).
Like-named read-outs stand apart in the source and are kept apart here.

Experiments:
Assay type in all cases: cell-based
[1] = test system: T-Rex 293 cells lacking increased expression of estrogen receptor alpha protein; assay: Cellular growth inhibition assay, T-Rex 293 cells, (−) doxycycline; details: T-REx-293, 72 h, 72 hours
Summary of the method: (§1)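 Cells of an inducible ERα-expressing T-Rex 293 clone are seeded in charcoal-dextran FBS medium with or without 3 ng/mL doxycycline, then treated after 24 h with compound dilutions (0.5% DMSO) for 72 h. Growth inhibition is measured by CellTiter-Glo luminescence and expressed as GI50.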

[2] = test system: MCF7 cells (ATCC #HTB-22); assay: Cellular growth inhibition assay, MCF7 cells purchased from ATCC; details: Homo sapiens, MCF7, 144 h, Table 8-A; MCF7 cells purchased from ATCC; six days; CellTiter-Glo; read-out: GI50
Summary of the method: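 GI50 values come from a four-parameter fit of CellTiter-Glo 2.0 luminescence after six days of compound exposure at 37° C. Seeding density depended on the source: 225 cells/well for ECACC MCF7, 1,500 for ATCC. Medium was RPMI 1640 with 10% FBS and 0.2 U/ml insulin.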

[3] = test system: T-Rex 293 cells having increased expression of estrogen receptor alpha protein; assay: Cellular growth inhibition assay, T-Rex 293 cells, (+) doxycycline; details: T-REx-293, 72 h, 72 hours
Summary of the method: as §1

[4] = Table 7-A, T-Rex 293 cells without doxycycline (lacking increased ERα expression), CellTiter-Glo, read-out: (−) Dox GI50
[5] = Table 7-A, T-Rex 293 cells with doxycycline (increased ERα expression), CellTiter-Glo, read-out: (+) Dox GI50

Row | Compound | GI50 [2] | GI50 [1, 4] | GI50 [3, 5] | GI50 ([1]; T-Rex 293 cells without doxycycline, CellTiter-Glo 2.0, read-out: (−) Dox TRex ERa (GI50)) | GI50 ([3]; T-Rex 293 cells with doxycycline-induced ERα expression, CellTiter-Glo 2.0, read-out: (+) Dox TRex ERa (GI50))
1 | Cc1sc2c(c1C)C(c1ccc(N3CCC(O)(CN4CCN(c5ccc(C6=C(c7cccc(Cl)c7Cl)CCCc7cc(C(=O)O)ccc76)cc5)CC4)CC3)cc1)=N[C@@H](C)c1nnc(C)n1-2 [IV-53] | < 50 nM | 500 to 2500 nM | < 50 nM |  | 
2 | Cc1sc2c(c1C)C(c1ccc(N3CCN(CC4CCN(c5ccc([C@@H]6c7ccc(O)cc7CC[C@@H]6c6ccccc6)cc5)CC4)CC3)cc1)=N[C@@H](Cc1nccs1)c1nnc(C)n1-2 [III-232] | < 50 nM | > 2500 nM | < 50 nM |  | 
3 | Cc1sc2c(c1C)C(c1ccc(OCCC3CCN(c4ccc(C(=O)c5c(-c6ccc(O)cc6)sc6cc(O)ccc56)cc4)CC3)cc1)=N[C@@H](Cc1ncco1)c1nnc(C)n1-2 [I-15, (S)-(6-hydroxy-2-(4-hydroxyphenyl)benzo[b]thiophen-3-yl)(4-(4-(2-(4-(2,3,9-trimethyl-6-(oxazol-2-ylmethyl)-6H-thieno[3,2-f][1,2,4]triazolo[4,3-a][1,4]diazepin-4-yl)phenoxy)ethyl)piperidin-1-yl)phenyl)methanone] | < 50 nM |  |  | < 50 nM | < 50 nM
4 | COc1cc(N2CCN(CC3(O)CCN(c4cc(F)c(C5=N[C@@H](C)c6nnc(C)n6-c6sc(C)c(C)c65)cc4F)CC3)CC2)ccc1[C@H]1c2ccc(O)cc2CC[C@H]1c1ccccc1 [III-340, 1-(2,5-difluoro-4-((S)-2,3,6,9-tetramethyl-6H-thieno[3,2-f][1,2,4]triazolo[4,3-a][1,4]diazepin-4-yl)phenyl)-4-((4-(4-((1R,2R)-6-hydroxy-2-phenyl-1,2,3,4-tetrahydronaphthalen-1-yl)-3-methoxyphenyl)piperazin-1-yl)methyl)piperidin-4-ol] | 50 to 500 nM | 50 to 500 nM | 50 to 500 nM |  | 
5 | Cc1sc2c(c1C)C(c1ccc(N3CC4(CCN(CC5CCN(c6ccc([C@@H]7c8ccc(O)cc8CC[C@@H]7c7ccccc7)cc6)CC5)CC4)C3)cc1)=N[C@@H](Cc1ncco1)c1nnc(C)n1-2 [III-161] | < 50 nM | 50 to 500 nM | < 50 nM |  | 
6 | COc1cc(N2CCN(CC3(O)CCN(c4ccc(C5=N[C@@H](C)c6nnc(C)n6-c6sc(C)c(C)c65)cc4)CC3)CC2)ccc1[C@H]1c2ccc(O)cc2CC[C@H]1c1ccc(F)cc1 (single isomer, unassigned) [III-275] | 50 to 500 nM | 50 to 500 nM | 50 to 500 nM |  | 
7 | Cc1sc2c(c1C)C(c1ccc(N3CC(CN4CCN(CC5CN(c6ccc([C@@H]7c8ccc(O)cc8CC[C@@H]7c7ccccc7)cc6)C5)CC4)C3)cc1)=N[C@H](C)c1nnc(C)n1-2 [III-146] | < 50 nM | 500 to 2500 nM | 500 to 2500 nM |  | 
8 | Cc1sc2c(c1C)C(c1ccc(N3CC4(CC(CN5CCN(c6ccc([C@H]7c8ccc(O)cc8CC[C@H]7c7ccc(F)cc7)cc6)CC5)C4)C3)cc1)=N[C@@H](C)c1nnc(C)n1-2 [III-262] | 50 to 500 nM | 500 to 2500 nM | 50 to 500 nM |  | 
9 | CC1=C(c2c(F)cc(F)cc2F)[C@@H](c2ccc(N3CCN(CC4CCN(c5ccc(C6=N[C@@H](C)c7nnc(C)n7-c7sc(C)c(C)c76)cc5)CC4)CC3)cc2)Oc2ccc(O)cc21 [V-22] | 50 to 500 nM | 500 to 2500 nM | < 50 nM |  | 
10 | Cc1sc2c(c1C)C(c1ccc(N3CCC(O)(CN4CCN(c5ccc([C@H]6c7ccc(C(=O)O)cc7CC[C@H]6c6ccccc6)cc5)CC4)CC3)cc1)=N[C@@H](Cc1ncco1)c1nnc(C)n1-2 [III-199] | > 2500 nM | > 2500 nM | > 2500 nM |  | 
11 | Cc1sc2c(c1C)C(c1ccc(N3CCN(CC4CCN(c5ccc([C@@H]6c7ccc(O)cc7CC[C@@H]6c6ccccc6)cc5)CC4)CC3)cc1)=N[C@@H](Cn1cccn1)c1nnc(C)n1-2 [III-215] | < 50 nM | > 2500 nM | < 50 nM |  | 
12 | Cc1sc2c(c1C)C(c1ccc(OCCN3CCN(CCOc4ccc([C@H]5c6ccc(O)cc6CC[C@H]5c5ccccc5)cc4)CC3)cc1)=N[C@@H](Cc1ncco1)c1nnc(C)n1-2 [III-110] | < 50 nM | < 50 nM | < 50 nM |  | 
13 | Cc1sc2c(c1C)C(c1ccc(N3CC(CN4CC(COc5ccc([C@H]6c7ccc(O)cc7CC[C@H]6c6ccccc6)cc5)C4)C3)cc1)=N[C@@H](C)c1nnc(C)n1-2 [III-102] | 50 to 500 nM | 50 to 500 nM | 50 to 500 nM |  | 
14 | Cc1sc2c(c1C)C(c1ccc(N3CCC(O)(CN4CCN(c5ccc([C@H]6c7ccc(O)cc7CC[C@H]6c6ccc(F)cc6)c(Cl)c5)CC4)CC3)cc1)=N[C@@H](C)c1nnc(C)n1-2 [III-306] | 50 to 500 nM | 500 to 2500 nM | 50 to 500 nM |  | 
15 | Cc1sc2c(c1C)C(c1ccc(N3CC(CN4CCC(C(=O)N5CC(c6ccc([C@@H]7c8ccc(O)cc8CC[C@@H]7c7ccccc7)cc6)C5)CC4)C3)cc1)=N[C@@H](C)c1nnc(C)n1-2 [III-173] | < 50 nM | 50 to 500 nM | < 50 nM |  | 
16 | Cc1sc2c(c1C)C(c1ccc(N3CC4(C3)CC(O)(CN3CCN(c5cc(F)c([C@@H]6c7ccc(O)cc7CC[C@@H]6c6ccc(F)cc6)c(F)c5)CC3)C4)cc1)=N[C@@H](C)c1nnc(C)n1-2 [III-279] | < 50 nM | 500 to 2500 nM | < 50 nM |  | 
17 | Cc1sc2c(c1C)C(c1ccc(N3CC(CN4CCC(C(=O)N5CC(c6ccc([C@@H]7c8ccc(O)cc8CC[C@@H]7c7ccccc7)cc6)C5)CC4)C3)cc1)=N[C@@H](Cc1ncco1)c1nnc(C)n1-2 [III-176] | < 50 nM | 50 to 500 nM | < 50 nM |  | 

Second part, led by results:

Row | GI50 [2] | Compound | GI50 [1, 4] | GI50 [3, 5] | GI50 ([1]; T-Rex 293 cells without doxycycline, CellTiter-Glo 2.0, read-out: (−) Dox TRex ERa (GI50)) | GI50 ([3]; T-Rex 293 cells with doxycycline-induced ERα expression, CellTiter-Glo 2.0, read-out: (+) Dox TRex ERa (GI50))
18 | 500 to 2500 nM | Cc1sc2c(c1C)C(c1ccc(N3CCN(CCOc4ccc([C@H]5c6ccc(O)cc6CC[C@H]5c5ccccc5)cc4)CC3)cc1)=N[C@@H](C)c1nnc(C)n1-2 [III-17] | 500 to 2500 nM | 500 to 2500 nM |  | 
19 | 50 to 500 nM | Cc1sc2c(c1C)C(c1ccc(N3CCC(O)(CN4CCN(c5ccc([C@H]6c7ccc(O)cc7CC[C@H]6c6ccc(F)c(F)c6)c(F)c5)CC4)CC3)cc1)=N[C@@H](C)c1nnc(C)n1-2 [III-269] | 50 to 500 nM | 50 to 500 nM |  | 
20 | < 50 nM | Cc1sc2c(c1C)C(c1ccc(N3CC(N4CCN(CCOc5ccc([C@@H]6c7ccc(O)cc7CC[C@@H]6c6ccccc6)cc5)CC4)C3)cc1)=N[C@@H](Cc1ncco1)c1nnc(C)n1-2 [III-113] | 50 to 500 nM | < 50 nM |  | 
21 | 50 to 500 nM | Cc1sc2c(c1C)C(c1ccc(N3CCC(O)(CN4CCC(c5ccc(C6=C(c7ccc(Cl)cc7Cl)CCCc7cc(C(=O)O)ccc76)cc5)CC4)CC3)cc1)=N[C@@H](C)c1nnc(C)n1-2 [IV-5] | > 2500 nM | < 50 nM |  | 
22 | 500 to 2500 nM | Cc1sc2c(c1C)C(c1ccc(N3CC4(CCC(CN5CCC(c6ccc([C@H]7c8ccc(O)cc8CC[C@H]7c7ccc(F)cc7)cc6)CC5)CC4)C3)cc1)=N[C@@H](C)c1nnc(C)n1-2 [III-252] | 500 to 2500 nM | 50 to 500 nM |  | 
23 | 50 to 500 nM | Cc1sc2c(c1C)C(c1ccc(N3CCC(CN4CCN(c5cc(F)c([C@H]6c7ccc(O)cc7CC[C@H]6c6ccccc6)cc5F)CC4)CC3)cc1)=N[C@@H](C)c1nnc(C)n1-2 [III-318] | 50 to 500 nM | 50 to 500 nM |  | 
24 | 50 to 500 nM | Cc1sc2c(c1C)C(c1ccc(N3CCCC(CN(C)CCOc4ccc([C@@H]5c6ccc(O)cc6CC[C@@H]5c5ccccc5)cc4)C3)cc1)=NC(Cc1ncco1)c1nnc(C)n1-2 (stereo partly drawn) [III-44] | 500 to 2500 nM | 50 to 500 nM |  | 
25 | 50 to 500 nM | Cc1sc2c(c1C)C(c1ccc(N3CC(F)(CN4CCC(CC5CN(c6ccc([C@@H]7c8ccc(O)cc8CC[C@@H]7c7ccccc7)cc6)C5)CC4)C3)cc1)=N[C@@H](C)c1nnc(C)n1-2 [III-157] | 500 to 2500 nM | < 50 nM |  | 
26 | 50 to 500 nM | Cc1sc2c(c1C)C(c1ccc(N3CCN(C4CCN(CCOc5ccc([C@@H]6c7ccc(O)cc7CC[C@@H]6c6ccccc6)cc5)CC4)CC3)cc1)=NC(Cc1ncco1)c1nnc(C)n1-2 (stereo partly drawn) [III-63] | 50 to 500 nM | < 50 nM |  | 
27 | < 50 nM | Cc1sc2c(c1C)C(c1ccc(N3CCC(O)(CN4CCN(c5ccc(C6=C(c7ccccc7Cl)CCCc7cc(C(=O)O)ccc76)cc5)CC4)CC3)cc1)=N[C@@H](C)c1nnc(C)n1-2 [IV-18] | 500 to 2500 nM | < 50 nM |  | 
28 | < 50 nM | Cc1sc2c(c1C)C(c1ccc(N3CCC(O)(CN4CCN(c5ccc(C6=C(c7ccc(Cl)cc7Cl)CCCc7cc(C(=O)O)ccc76)cc5)CC4)CC3)cc1)=N[C@@H](Cc1ncco1)c1nnc(C)n1-2 [IV-31] | 50 to 500 nM | < 50 nM |  | 
29 | < 50 nM | Cc1sc2c(c1C)C(c1ccc(N3CCC(CN4CC5(CCN(c6ccc([C@@H]7c8ccc(O)cc8CC[C@@H]7c7ccccc7)cc6)CC5)C4)CC3)cc1)=N[C@@H](C)c1nnc(C)n1-2 [III-87] | 50 to 500 nM | < 50 nM |  | 
30 | > 2500 nM | Cc1sc2c(c1C)C(c1ccc(N3CCC(O)(CN4CCN(c5cc(F)c([C@H]6c7ccc(O)cc7CC[C@H]6c6ccccc6)c(F)c5)CC4)CC3)cc1)=N[C@@H](Cc1ncco1)c1nnc(C)n1-2 [III-194] | > 2500 nM | > 2500 nM |  | 
31 | 50 to 500 nM | Cc1sc2c(c1C)C(c1ccc(N3CC(CN4CCN(CC5CN(c6ccc([C@H]7c8ccc(O)cc8CC[C@H]7c7ccccc7)cc6)C5)CC4)C3)cc1)=N[C@@H](C)c1nnc(C)n1-2 [III-147] | 50 to 500 nM | 50 to 500 nM |  | 
